Results as given in patent US5482996A, “Protein-containing polymers and a method of synthesis of protein-containing polymers in organic solvents” (University of Pittsburgh, priority 1993, dated 1996).
Starred links: 1 amine or outer side, 2 acyl side, 3 side chain; linkers in the order of their positions; H or OH if unused. Residues, ends and D or L forms follow the SMILES beside them. *: point of attachment. pNA = O=[N+]([O-])c1ccc(N*)cc1; Suc = O=C(CCC(=O)[*:2])[*:1]

Assays:
Assay in all cases: Hydrolysis of peptide p-nitroanilide substrate, kinetic constants
Type in all cases: biochemical
[1] = target: T1, Subtilisin Carlsberg, doubly modified with PEG monomethacrylate (MW 8,000) (Bacillus licheniformis, UniProt P00780)
T1 construct: purchased Sigma Chemical Co
T1 sequence (P00780 106-379): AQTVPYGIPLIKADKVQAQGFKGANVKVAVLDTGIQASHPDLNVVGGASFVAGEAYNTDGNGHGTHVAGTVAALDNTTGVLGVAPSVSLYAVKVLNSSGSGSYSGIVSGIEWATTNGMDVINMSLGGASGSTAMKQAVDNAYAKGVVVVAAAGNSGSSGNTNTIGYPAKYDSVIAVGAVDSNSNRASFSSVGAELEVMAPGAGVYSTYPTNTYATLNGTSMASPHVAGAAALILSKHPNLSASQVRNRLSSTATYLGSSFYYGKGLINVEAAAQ
Procedure: (§1) Kinetic studies of the modified protein were performed using substrate (N-succinyl-L-alanyl-L-alanyl-L-prolyl-L-phenylalanyl p-nitroanilide) in 0.1M Tris-HCl buffer, pH 8.6. The purified HPLC fractions (three total) were tested for activity while increasing the substrate concentrations in equal increments. Substrate concentration versus rate was plotted to determine Vmax and Km using non-linear regression analysis. A standard of pure subtilisin was analyzed as a control.
(§2) Before reacting PEG-subtilisin with other materials it is necessary to fully characterize the activity and stability of the "bio-monomer". Using solubility, IMAC, and HPLC the modified protein was separated into predominantly singly or doubly modified protein fractions. […] Thus, the activities and stabilities noted are average properties for the sample being studied. For comparison to the native protein, unmodified protein was purified from the modification reaction mixture and characterized to some degree.
(§3) As set forth above, the activity of the modified enzymes was assessed with the artificial peptide substrate succinyl-L-alanyl-L-alanyl-L-prolyl-L-phenylalanyl p-nitroanilide. A sample of 30 mg modified protein powder was dissolved in tetrahydrofuran, and filtered with a solvent resistant 0.22 μm filter in order to remove the insoluble native protein. The solvent was evaporated and, as mentioned above, values for Vmax and Km were determined.

[2] = target: T2, Subtilisin Carlsberg, singly modified with PEG monomethacrylate (MW 8,000) (Bacillus licheniformis, UniProt P00780); details: 25% dioxane/75% buffer
T2 construct: purchased Sigma Chemical Co
T2 sequence (P00780 106-379): T1 sequence (P00780 106-379)
Procedure: as §1, §2, §3

[3] = target: T3, Subtilisin Carlsberg, unmodified fraction purified from the PEG modification reaction mixture (Bacillus licheniformis, UniProt P00780)
T3 construct: purchased Sigma Chemical Co
T3 sequence (P00780 106-379): T1 sequence (P00780 106-379)
Procedure: as §1, §2, §3

[4] = target: T4, Subtilisin Carlsberg, native (pure subtilisin standard) (Bacillus licheniformis, UniProt P00780)
T4 construct: purchased Sigma Chemical Co
T4 sequence (P00780 106-379): T1 sequence (P00780 106-379)
Procedure: as §1, §3

Q: Which results are given for `C[C@H](NC(=O)CCC(=O)O)C(=O)N[C@@H](C)C(=O)N1CCC[C@H]1C(=O)N[C@@H](Cc1ccccc1)C(=O)Nc1ccc([N+](=O)[O-])cc1` [N-succinyl-L-alanyl-L-alanyl-L-prolyl-L-phenylalanyl p-nitroanilide] (Suc-AAPF-pNA)?
A: Vmax ([1]; 25% dioxane/75% buffer): 1.8 ΔA412/sec/mg protein; Vmax ([1]; Tris-HCl buffer (0.1M, pH 8.6)): 1.6 ΔA412/sec/mg protein; Vmax [2]: 5.3 ΔA412/sec/mg protein; Vmax ([3]; 25% dioxane/75% buffer): 2.9 ΔA412/sec/mg protein; Vmax ([3]; Tris-HCl buffer (0.1M, pH 8.6)): 2.2 ΔA412/sec/mg protein; Vmax ([4]; 25% dioxane/75% buffer): 66.2 ΔA412/sec/mg protein; Vmax ([4]; Tris-HCl buffer (0.1M, pH 8.6)): 108 ΔA412/sec/mg protein
